Measurements from ChEMBL document CHEMBL1145750, “Synthesis and biological evaluation of 2'-methyl taxoids derived from baccatin III and 14beta-OH-baccatin III 1,14-carbonate” (J Med Chem, 2003).

Assays:
A2780 [1] = test: In vitro cytotoxicity against A2780TAX cell line; settings: Homo sapiens
[2] = Potency differential in resistant to that of sensitive A2780CIS cell line; assay type: functional
MCF7 = test: In vitro cytotoxicity against MCF-7 cell line; assay type: functional, cell-based; settings: Homo sapiens
[3] = (§1) Potency differential in resistant to that of sensitive MCF7-R cell line; assay type: functional
[4] = Potency differential in resistant to that of sensitive A2780ADR cell line; assay type: functional, A2780 ADR
A2780 [5] = test: In vitro cytotoxicity against A2780 cell line; settings: Homo sapiens
A2780 [6] = test: In vitro cytotoxicity against A2780CIS cell line; settings: Homo sapiens
A2780 [7] = test: In vitro cytotoxicity against A2780ADR cell line; settings: Homo sapiens
[8] = Potency differential in resistant to that of sensitive A2780TAX cell line; assay type: functional
MCF7R [9] = test: In vitro cytotoxicity against MCF7-R cell line; assay type: functional, cell-based; settings: Homo sapiens
MCF7R [10] = test: as §1; assay type: functional, cell-based; settings: Homo sapiens

Row | Compound | IC50 (A2780 [1]) [nM] | Ratio [2] | IC50 (MCF7) [nM] | Ratio [3] | Ratio [4] | IC50 (A2780 [5]) [nM] | IC50 (A2780 [6]) [nM] | IC50 (A2780 [7]) [nM] | Ratio [8] | IC50 (MCF7R [9]) [nM] | Ratio (MCF7R [10])
1 | CC(=O)O[C@H]1C(=O)[C@@]2(C)[C@H]([C@H](OC(=O)c3ccccc3)[C@]34OC(=O)O[C@H]3[C@H](OC(=O)[C@](C)(O)[C@@H](NC(=O)OC(C)(C)C)c3ccco3)C(C)=C1C4(C)C)[C@]1(OC(C)=O)CO[C@@H]1C[C@@H]2O | 30.9 | 0.4 | 1.7 | 9.4 | 4 | 5.9 | 2.5 | 27.1 | 5 | 16 | –
2 | CC(=O)O[C@H]1C(=O)[C@@]2(C)[C@H]([C@H](OC(=O)c3ccccc3)[C@]34OC(=O)O[C@H]3[C@H](OC(=O)[C@](C)(O)[C@@H](NC(=O)OC(C)(C)C)c3ccccc3)C(C)=C1C4(C)C)[C@]1(OC(C)=O)CO[C@@H]1C[C@@H]2O | 299 | 0.7 | – | – | 21 | 2.5 | 1.7 | 52.9 | 118 | – | –
3 | CC(=O)O[C@H]1C(=O)[C@@]2(C)[C@H]([C@H](OC(=O)c3ccccc3)[C@]3(O)C[C@H](OC(=O)[C@](C)(O)[C@@H](NC(=O)c4ccccc4)c4ccco4)C(C)=C1C3(C)C)[C@]1(OC(C)=O)CO[C@@H]1C[C@@H]2O | 420 | 0.9 | – | – | 20 | 3.1 | 2.9 | 61.4 | 135 | – | –
4 | CC(=O)O[C@H]1C(=O)[C@@]2(C)[C@H]([C@H](OC(=O)c3ccccc3)[C@]3(O)C[C@H](OC(=O)[C@](C)(O)[C@@H](NC(=O)OC(C)(C)C)c4ccco4)C(C)=C1C3(C)C)[C@]1(OC(C)=O)CO[C@@H]1C[C@@H]2O | 312 | 1.1 | – | – | 14 | 2.9 | 3.3 | 41.3 | 107 | – | –
5 | CC(=O)O[C@H]1C(=O)[C@@]2(C)[C@H]([C@H](OC(=O)c3ccccc3)[C@]34OC(=O)O[C@H]3[C@H](OC(=O)[C@](C)(O)[C@@H](NC(=O)OC(C)(C)C)C(F)(F)F)C(C)=C1C4(C)C)[C@]1(OC(C)=O)CO[C@@H]1C[C@@H]2O | 285 | 0.6 | – | – | 17 | 4.6 | 2.8 | 79.3 | 61 | – | –
6 | CC(=O)O[C@H]1C(=O)[C@@]2(C)[C@H]([C@H](OC(=O)c3ccccc3)[C@]34OC(=O)O[C@H]3[C@H](OC(=O)[C@H](O)[C@H](CC(C)C)NC(=O)OC(C)(C)C)C(C)=C1C4(C)C)[C@]1(OC(C)=O)CO[C@@H]1C[C@@H]2O [ORTATAXEL] | 56 | 0.7 | 1.1 | – | 13 | 4.8 | 3.6 | 63 | 12 | 36 | 33
